pIC50: −log10 of the molar value.

The target in the test is T1, Kir3.1/3.4 (Rattus norvegicus, UniProt P48548+P63251).
T1 construct: expressed in transfected cells
T1 sequence (P63251 1-501): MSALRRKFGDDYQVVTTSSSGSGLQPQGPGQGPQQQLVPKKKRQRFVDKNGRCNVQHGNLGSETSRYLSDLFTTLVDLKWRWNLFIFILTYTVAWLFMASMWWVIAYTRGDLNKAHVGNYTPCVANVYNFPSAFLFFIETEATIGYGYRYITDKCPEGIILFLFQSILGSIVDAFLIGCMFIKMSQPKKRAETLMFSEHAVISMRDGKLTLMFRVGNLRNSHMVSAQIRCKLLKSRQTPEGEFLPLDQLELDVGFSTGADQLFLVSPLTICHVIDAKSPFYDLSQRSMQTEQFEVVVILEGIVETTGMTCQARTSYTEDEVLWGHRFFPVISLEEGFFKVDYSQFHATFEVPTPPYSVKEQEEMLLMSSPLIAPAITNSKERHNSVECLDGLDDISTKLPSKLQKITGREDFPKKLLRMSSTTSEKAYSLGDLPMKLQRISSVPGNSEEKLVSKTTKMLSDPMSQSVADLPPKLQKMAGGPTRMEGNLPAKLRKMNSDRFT
T1 sequence (P48548 1-419): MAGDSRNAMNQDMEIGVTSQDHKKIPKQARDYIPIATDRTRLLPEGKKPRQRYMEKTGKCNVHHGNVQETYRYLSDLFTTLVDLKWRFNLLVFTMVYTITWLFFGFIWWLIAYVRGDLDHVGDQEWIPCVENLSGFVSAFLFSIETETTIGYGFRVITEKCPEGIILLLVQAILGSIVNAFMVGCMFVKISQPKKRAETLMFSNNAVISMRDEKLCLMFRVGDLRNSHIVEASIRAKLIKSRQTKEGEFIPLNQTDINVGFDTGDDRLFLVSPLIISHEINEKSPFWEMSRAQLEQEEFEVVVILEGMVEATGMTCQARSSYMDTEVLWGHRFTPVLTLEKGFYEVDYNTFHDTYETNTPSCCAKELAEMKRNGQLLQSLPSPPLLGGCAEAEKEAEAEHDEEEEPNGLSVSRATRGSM
Description: Kir3.1/3.4 Electrophysiology Method (manual whole-cell patch clamp). It counts as cell-based. The following applies: Electrophysiology Method (TABLE 1). Summed up:
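Percent inhibition is relative to the pre-drug current, both leak-subtracted using a potassium-free bather, taken as the mean current at −140 mV. The protocol was a step to +60 mV, a ramp to −140 mV, then a return to −60 mV holding, every 10 s. Cells were rat Kir3.1/3.4-transfected HEK293 recorded by whole-cell patch clamp.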
In general terms: The patch-clamp technique gives a direct electrical read-out from membranes.
`CN1CCC(N(C)CC2CCN(c3nc(N4CCC(C(N)=O)CC4)nc4scc(-c5ccccc5)c34)CC2)C1` (stereo not drawn) [Example 239] had a pIC50 of more than 6.30.
In turn, `COCCN1CCN(c2nc(N3CCC(CN(C)C4CCN(C)C4)CC3)c3c(-c4ccccc4)csc3n2)CC1` (stereo not drawn) [Example 122] had a pIC50 of more than 6.30.
Consider `c1ccc(-c2csc3ncnc(N4CCC(CN5CCC(N6CCCC6)C5)CC4)c23)cc1` (stereo not drawn) [Example 76, 5-phenyl-4-[4-[(3-pyrrolidin-1-ylpyrrolidin-1-yl)methyl]-1-piperidyl]thieno[2,3-d]pyrimidine], for which the pIC50 was more than 6.30.
The result for `NC1CCCN(CC2CCN(c3ncnc4scc(-c5ccccc5)c34)CC2)C1` (stereo not drawn) [Example 211] reads more than 6.30; that for `CC(=O)NC1CCN(c2nc(N3CCC(CN(C)C4CCN(C)C4)CC3)c3c(-c4ccccc4)csc3n2)C1` (stereo not drawn) [Example 226], more than 6.30; that for `CC(C)c1csc2ncnc(N3CC4CC3CC4OCCN3CC[C@@H](F)C3)c12` (stereo partly drawn) [Example 295], more than 6.30.
On to `c1ccc(-c2csc3ncnc(N4CCC(CNCc5ccccn5)CC4)c23)cc1` [Example 66, N-[[1-(5-phenylthieno[2,3-d]pyrimidin-4-yl)-4-piperidyl]methyl]-1-(2-pyridyl)methanamine], for which the pIC50 was more than 6.30.
`COCC1CCN(c2nc(OC3CC4CC3CN4)nc3scc(-c4ccccc4)c23)CC1` (stereo not drawn) [Example 307] showed a pIC50 of more than 6.30.
The figure for `c1nc(N2CCC(COCCN3CCCC3)CC2)c2c(-c3ccoc3)csc2n1` [Example 315] is more than 6.30.
The figure for `NC(=O)[C@@H]1CCN(CCN2CCN(c3ncc4c(-c5ccccc5)csc4n3)CC2)C1` [Example 150] is 5.52 to 6.30; for `O=C1NCCN1c1sc2ncnc(N3CCC(COCCN4CCCC4)CC3)c2c1-c1ccccc1` [Example 368] it is more than 6.30.
`CN(C)C1CCCN(CC2CCN(c3ncnc4scc(-c5ccccc5)c34)CC2)C1` (stereo not drawn) [Example 60, N,N-dimethyl-1-[[1-(5-phenylthieno[2,3-d]pyrimidin-4-yl)-4-piperidyl]methyl]piperidin-3-amine]: the pIC50 is more than 6.30.
Turning to `NC(=O)[C@@H]1CCCN1CCOCC1C2CN(c3ncnc4scc(-c5ccc(F)cc5)c34)CC12` (stereo partly drawn) [Example 277], the pIC50 is more than 6.30.
The result for `CN(C)[C@@H]1CCN(CC2CCN(c3nc(N4CCC(C(N)=O)C4)nc4scc(-c5ccccc5)c34)CC2)C1` (stereo partly drawn) [Example 236] reads more than 6.30; that for `CN(C)CCN(C)CC1CCN(c2ncnc3scc(-c4ccccc4)c23)CC1` [Example 71, N,N,N′-trimethyl-N′-[[1-(5-phenylthieno[2,3-d]pyrimidin-4-yl)-4-piperidyl]methyl]ethane-1,2-diamine], more than 6.30; that for `c1ccc(-c2csc3nc(N4CCC(COCCN5CC6CC5CO6)CC4)ncc23)cc1` (stereo not drawn) [Example 154], more than 6.30.
The result for `CN1CC(NCC2CCN(c3ncnc4scc(-c5ccccc5)c34)CC2)CC1=O` (stereo not drawn) [Example 91, 1-methyl-4-[[1-(5-phenylthieno[2,3-d]pyrimidin-4-yl)-4-piperidyl]methylamino]pyrrolidin-2-one] reads 5.52 to 6.30; that for `CC(C)NCC1CCN(c2ncnc3scc(C4CCCCC4)c23)CC1` [Example 196], more than 6.30; that for `CCOc1ncccc1-c1csc2ncnc(N3CCC(COCCN4CCCC4)CC3)c12` [Example 331], more than 6.30.
`CNC(=O)c1sc2ncnc(N3CCC(COCCN4CCCC4)CC3)c2c1-c1ccccc1` [Example 141] had a pIC50 of more than 6.30.
As for `COCCNc1nc(N2CCC(CN(C)C3CCN(C)C3)CC2)c2c(-c3ccccc3)csc2n1` (stereo not drawn) [Example 118], the pIC50 was more than 6.30.
The figure for `COCC1CCN(c2nc(N3CCC(CO)CC3)nc3scc(-c4ccccc4)c23)CC1` [Example 191] is more than 6.30; for `F[C@H]1CCN(CC2CCN(c3ncnc4scc(-c5ccccc5)c34)CC2)C1` [Example 92, 4-[4-[[(3S)-3-fluoropyrrolidin-1-yl]methyl]-1-piperidyl]-5-phenyl-thieno[2,3-d]pyrimidine] it is 5.52 to 6.30; for `CN1CCC(N(C)CC2CCN(c3nc(N4CCC[C@@H]4C(N)=O)nc4scc(-c5ccccc5)c34)CC2)C1` (stereo partly drawn) [Example 229] it is more than 6.30.
The figure for `c1ccc(-c2csc3ncnc(N4CCC(CNCc5ccco5)CC4)c23)cc1` [Example 61, 1-(2-furyl)-N-[[1-(5-phenylthieno[2,3-d]pyrimidin-4-yl)-4-piperidyl]methyl]methanamine] is more than 6.30; for `O=C1CCCN1c1sc2ncnc(N3CCC(COCCN4CCCC4)CC3)c2c1-c1ccccc1` [Example 163] it is more than 6.30.
The result for `O=C(NCCN1CCOCC1)C1CCCN(c2ncnc3scc(-c4ccccc4)c23)C1` (stereo not drawn) [Example 285] reads 5.52 to 6.30; that for `Fc1ccc(-c2csc3ncnc(N4CCC(CNC5CCC5)CC4)c23)cc1` [Example 78, N-[[1-[5-(4-fluorophenyl)thieno[2,3-d]pyrimidin-4-yl]-4-piperidyl]methyl]cyclobutanamine], 5.52 to 6.30; that for `NC(=O)[C@H]1CCCN1CCOC1CC2CC1CN2c1ncnc2scc(-c3ccccc3)c12` (stereo partly drawn) [Example 293], more than 6.30.
`CCN(CC)C(=O)C1CCCN(c2nc(N3CCC(CN(C)C4CCN(C)C4)CC3)c3c(-c4ccccc4)csc3n2)C1` (stereo not drawn) [Example 228] showed a pIC50 of more than 6.30.
The result for `CC1CCN(CC2CC(c3ccccc3)N(c3ncnc4scc(-c5ccccc5)c34)C2)C1` (stereo not drawn) [Example 198] reads more than 6.30; that for `c1ccc(-c2csc3nc(N4CCC(COCCN5CCCC5)CC4)ncc23)cc1` [Example 148, 5-phenyl-2-[4-(2-pyrrolidin-1-ylethoxymethyl)-1-piperidyl]thieno[2,3-d]pyrimidine], more than 6.30; that for `CC(C)c1csc2nc(N3CCC(COCCN4CCCC4)CC3)ncc12` [Example 157], more than 6.30.
The result for `O=C1CCCN1c1sc2nc(N3CCC(COCCN4CCCC4)CC3)ncc2c1-c1ccccc1` [Example 156] reads more than 6.30; that for `c1ccc(-c2csc3ncnc(N4CCC(CNC5CCC5)CC4)c23)cc1` [Example 64, N-[[1-(5-phenylthieno[2,3-d]pyrimidin-4-yl)-4-piperidyl]methyl]cyclobutanamine], more than 6.30.
`c1nc(N2CCC(COCCN3CCCC3)CC2)c2c(-c3ccc4c(c3)OCO4)csc2n1` [Example 319] had a pIC50 of more than 6.30.
Compound `c1ccc(-c2csc3nc(N4CCN(CCN5CCCC5)CC4)ncc23)cc1` [Example 145] gave a pIC50 of more than 6.30.
The result for `CC(C)NC(=O)c1sc2ncnc(N3C4CCC3CC(COCCN3CCCC3)C4)c2c1-c1ccccc1` (stereo not drawn) [Example 357] reads more than 6.30; that for `CN(C)[C@@H]1CCCN(CC2CCN(c3ncnc4scc(-c5ccccc5)c34)CC2)C1` [Example 216], more than 6.30; that for `CN(C)c1nc(N2CCC(COCCN3CCCC3)CC2)nc2scc(-c3ccccc3)c12` [Example 275], more than 6.30.
The figure for `c1ccc(-c2csc3ncnc(N4CCC(COCCN5CCCC5)CC4)c23)cc1` [Example 5, 5-phenyl-4-[4-(2-pyrrolidin-1-ylethoxymethyl)-1-piperidyl]thieno[2,3-d]pyrimidine] is more than 6.30; for `c1ccc(-c2csc3ncnc(N4CCC(CN5CCC(N6CCCCC6)C5)CC4)c23)cc1` (stereo not drawn) [Example 218] it is more than 6.30.

The pIC50 is the negative decadic logarithm of the IC50, by convention in mol/L.
